Results as given in patent publication US12097232B1, “Method of preventing cadmium-induced renal toxicity using a plant product derived from Achillea millefolium L” (KING FAISAL UNIVERSITY, priority 2024, dated 2024).

Tests used:
Assay type in all cases: in vivo, Wistar rats
[1] = Cd concentration in renal tissue by atomic absorption spectrophotometry
Protocol: (§1) Thirty-two adult male Wistar rats (8-9 weeks old, weighing, 160-180 g) were purchased from the Experimental Animal Research Centre, King Saud University, Riyadh, KSA.
(§2) To study the renal protective activity of Achillea millefolium essential oil (AEO) on CdCl2-induced renal toxicity, rats were randomly divided into four groups (n=8 per group). Control rats were orally administered saline 1 h before injected intraperitoneally (i.p.) with 0.9% NaCl (physiological saline) daily for 5 days. The CdCl2 group was orally administered saline 1 h before injected i.p. with 6.5 mg/kg CdCl2 daily for 5 days. The AEO group was orally administered AEO (200 mg/kg) 1 h before injected with 0.9% NaCl (physiological saline) daily for 5 days. The AEO+CdCl2 group was orally administered AEO (100 mg/kg) 1 h before injected 6.5 mg/kg CdCl2 i.p. daily for 5 days. CdCl2 was dissolved in physiological saline.
(§3) Rats were euthanized (decapitation) 24 hours after the final dosing. The kidneys were dissected, weighed to obtain the weight and then divided into 2 parts. […] The 2nd part was kept at −80° C. for quantitative real-time qRT-PCR.
The Cd concentrations in renal tissues were estimated as mentioned before. […] The levels of metal were measured by atomic absorption spectrophotometry in a graphite furnace at 228.8 nm. The Cd values are expressed as microgram per gram of wet renal tissue.

[2] = tested on: HMGB1, TLR4, MYD88, NFκB gene expression; settings: renal
Protocol: as §1, §2
(§4) Rats were euthanized (decapitation) 24 hours after the final dosing. The kidneys were dissected, weighed to obtain the weight and then divided into 2 parts. The 1st part was homogenized in ice-cold 10 mM phosphate buffer (pH 7.4) to produce a 10% (w/v) homogenate for biochemical analysis. The 2nd part was kept at −80° C. for quantitative real-time qRT-PCR.
(§5) Gene expression for the TLR pathway, High-mobility group box 1 (HMBG1), Toll-Like Receptor 4 (TLR4), myeloid differentiation primary response gene 88 (MYD88), and Nuclear factor kappa B (NFκB) were quantified via real-time PCR (qPCR) consuming the primers' sequences, shown in Table 1, in agreement with the method described elsewhere. Briefly, RNA was isolated and purified using a Trizol reagent kit (Invitrogen, Carlsbad, CA, USA), then a reverse transcription polymerase chain reaction (RT-PCR) kit (TaKaRa, Kusatsu, Shiga, Japan) to reverse transcription reaction following the manufacturer's procedures. qPCR was applied using a SYBR ExScript RT-PCR kit, and quantification examinations were accomplished via an Opticon-2 Real-time PCR reactor (MJ Research, Capital Court, Reno, NV, USA). qPCR results were obtained using Step PE Applied Biosystems (Waltham, MA, USA) software. Relative gene expression data were calculated as mentioned earlier by the Livak and Schmittgen method (2−^ΔΔCq2) and presented as a fold change.

[3] = tested on: Caspase 3, Caspase 9, Bax, Bcl2; settings: CdCl2 renal injury vs control
Protocol: as §1, §2, §4, §5
The actions of AEO administration on the apoptotic markers, such as caspase-3 and caspase 9 were evaluated.

[4] = tested on: kidney function biomarkers (BUN, uric acid, creatinine, NAG); assay: Kidney function biomarkers in CdCl2-induced renal toxicity
Protocol: as §1, §2, §4
Biomarkers of kidney function, i.e., Blood urea nitrogen (BUN), uric acid, and creatinine, were evaluated by using specific commercial kits. N-acetyl-β-D-glucosaminidase (NAG) is a marker of tubular toxicity was assessed using ELISA kit.

[5] = Kidney weight in CdCl2-induced renal toxicity rats
Protocol: as §1
All the animals were maintained with typical laboratory food and water ad libitum in a ventilated cage system (12 h light/dark cycle, 20.3-23.1° C.) throughout the whole experiment.
as §2, §3

MDA, SOD, CAT, GPx, GSH = assay: Renal oxidative stress markers in Cd-induced renal toxicity
Protocol: as §1, §2, §4
Lipid peroxidation was assessed according to the amount of malondialdehyde (MDA). The content of reduced glutathione (GSH) was evaluated and the activities of Catalase (CAT), Superoxide dismutase (SOD) and glutathione peroxidase (GPx) were estimated using kits.

[6] = tested on: TNF-α, IFN-γ, MCP-1, IL-10; assay: Renal inflammatory mediators by ELISA in Cd-induced renal toxicity; settings: CdCl2 group vs control
Protocol: as §1, §2, §4
Inflammation markers including interferon gamma (IFN-γ), monocyte chemoattractant protein-1 (MCP-1), tumor necrosis factor alpha (TNF-α), and interleukin 10 (IL-10) were measured using ELISA kits.

[7] = CdCl2 group: CdCl2 6.5 mg/kg i.p. daily 5 days, mean ± SD
[8] = Cd experienced animals vs control
[9] = renal, CdCl2 administered rats vs control

[Cl][Cd][Cl] [CdCl2]
Cd concentration in renal tissue (in words) ([1]; CdCl2 group vs control): significantly increased | Cd concentration [1, 7]: 0.95 ± 0.01 μg/g renal tissue | HMGB1 mRNA expression level ([2]; Cd administered rats vs control): increased | MYD88 mRNA expression [2, 8]: amplified significantly | TLR4 mRNA expression [2, 8]: amplified significantly | nuclear NFκB p65 level ([2]; Cd group vs control): significantly augmented | caspase 3 renal content [3]: augmented | caspase 9 renal content [3]: augmented | Bax gene expression ([3]; renal): augmented | Bcl2 gene expression ([3]; renal): diminished | BUN level (in words) ([4]; Cd-exposed rats vs control): increases | serum creatinine level (in words) ([4]; Cd-exposed rats vs control): increases | uric acid level (in words) ([4]; Cd-exposed rats vs control): increases | BUN [4, 7]: 40.66 ± 3.15 mg/dL | NAG [4, 7]: 33.2 ± 6.8 mIU/ml | Uric acid [4, 7]: 4.54 ± 0.15 mg/dL | Creatinine ([4]; serum, CdCl2 group: CdCl2 6.5 mg/kg i.p. daily 5 days, mean ± SD): 0.68 ± 0.01 mg/dL | kidney weight (in words) ([5]; CdCl2 group vs control): reduction in kidney weight | Kidney wt. [5, 7]: 1.43 ± 0.11 g | renal GSH content (MDA, SOD, CAT, GPx, GSH; CdCl2 group vs control): obvious reduction | CAT activity (MDA, SOD, CAT, GPx, GSH; [9]): considerably declined | GPx activity (MDA, SOD, CAT, GPx, GSH; [9]): considerably declined | SOD activity (MDA, SOD, CAT, GPx, GSH; [9]): considerably declined | MDA level (lipid peroxidation) (MDA, SOD, CAT, GPx, GSH; renal, CdCl2 group vs control): augmented | IFN-γ renal level [6]: amplified | MCP-1 renal level [6]: amplified | TNF-α renal level [6]: amplified | IL-10 level ([6]; renal): declined
